The term IC50 denotes the concentration that inhibits the measured activity by half.

For assay [1], the system named is IL-2 secretion by human effector memory T cells (TEM). Description: Effector memory T cells IL-2 release assay. The class given is cell-based. The following applies: T-cell; human CD4+ effector memory T cells, CD3/CD28 bead stimulation, 24 h; read-out: CD4TC IL2 IC50. As to the method:
Effector Memory T Cells IL-2 Release Assay
Test compound-mediated inhibition of NFκB signalling in T cells was assessed by quantification of the IL-2 secretion by human effector memory T cells (TEM) upon treatment and stimulation. Human TEM cells were isolated from buffy coats of healthy donors obtained from the French blood bank. First, peripheral blood mononuclear cells (PBMC) were purified from buffy coats diluted 1:1 with DPBS (Gibco, cat #14190-094) by Pancoll (PAN BIOTECH, cat #P04-60500) density gradient centrifugation at 400×g for 20 minutes. TEM cells were further enriched by negative immuno-magnetic cell sorting using a human CD4+ Effector Memory T Cell Isolation Kit (Miltenyi, cat #130-094-125) according to the manufacturer's instructions. Aliquots of 3×10E6 purified TEM cells were kept frozen in Cryo-SFM medium (PromoCell, cat #C-29912) in gas phase nitrogen until used. Cell purity was verified by flow cytometry analysis of 200 000 PFA-fixed cells previously labelled with monoclonal antibodies anti-CD4-PerCP-Cy5.5 (BD Pharmigen, cat #332772), anti-CD8-V500 (BD Biosciences, cat #561617), anti-CD14-Pacific Blue (Biolegend, cat #325616), anti-CD45 RA-FITC (Biolegend, cat #304106) and anti-CCR7-APC (in CD4+ Effector Memory T Cell Isolation Kit, Miltenyi, cat #130-094-125).
TEM cells were resuspended in complete RPMI medium composed of: RPMI 1640 (Gibco, cat #31870-025), 10% heat inactivated fetal bovine serum (Sigma, cat #F7524), 2 mM GlutaMAX (Gibco, cat #35050-038), 1 mM sodium pyruvate 100× (Gibco, cat #11360-039), 1% MEM non-essential amino acids solution (Gibco, cat #11140-035) and 100 U/mL penicillin, 100 μg/mL streptomycin (Sigma-Aldrich, cat #11074440001). 5,000 cells per well were plated onto flat clear bottom 384 well plates (Corning, cat #3770). 5,000 Dynabeads Human T-Activator CD3/CD28 (Gibco, cat #11132D) were added to each well for cell stimulation. Finally, 10 doses of test compound, originally prepared in DMSO by serial semi-log step dilution, were also added to cells in triplicate wells. Final DMSO concentration in wells was 0.1% in a total volume of 100 μL complete medium. Plates were incubated for 24 h at 37° C. in 5% CO2 atmosphere. After incubation, cell suspensions were centrifuged at 400×g and culture supernatants were recovered and stored at −80° C. Cell viability was assessed by flow cytometry after staining the cells with Fixable Viability Dye eFluor 780 (Invitrogen, cat #65-0865-14). IL-2 levels were determined in cell supernatants using an HTRF human IL-2 detection kit (Cisbio, cat #62HIL02PEH). IL-2 data at the different compound doses were fitted to a 4-parameter logistic curve to determine IC50 values, corresponding to the compound concentration leading to 50% reduction of the maximal IL-2 levels observed in each experiment. Viability data were analysed similarly to exclude cytotoxicity as a cause of IL-2 decrease (see Table 1).

Assay [2] has as its target Recombinant human MALT-1 (amino acids 340-824) (Homo sapiens (Human), UniProt Q9UDY8). Description: MALT-1 inhibition assay (fluorogenic substrate Ac-LRSR-Rh110-DP). The class given is biochemical. The note with it: recombinant human MALT-1, substrate Ac-LRSR-Rh110-DP. The gist of the method: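 Reactions were started with fluorogenic substrate Ac-LRSR-Rh110-DP (10 μM final) against 3 nM enzyme and kept dark at 25° C for 60 minutes. IC50 values came from 4-parameter logistic fits of percent inhibition calculated from relative fluorescence units.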

Recombinant human MALT-1 (amino acids 340-824), sequence (Q9UDY8 340-824): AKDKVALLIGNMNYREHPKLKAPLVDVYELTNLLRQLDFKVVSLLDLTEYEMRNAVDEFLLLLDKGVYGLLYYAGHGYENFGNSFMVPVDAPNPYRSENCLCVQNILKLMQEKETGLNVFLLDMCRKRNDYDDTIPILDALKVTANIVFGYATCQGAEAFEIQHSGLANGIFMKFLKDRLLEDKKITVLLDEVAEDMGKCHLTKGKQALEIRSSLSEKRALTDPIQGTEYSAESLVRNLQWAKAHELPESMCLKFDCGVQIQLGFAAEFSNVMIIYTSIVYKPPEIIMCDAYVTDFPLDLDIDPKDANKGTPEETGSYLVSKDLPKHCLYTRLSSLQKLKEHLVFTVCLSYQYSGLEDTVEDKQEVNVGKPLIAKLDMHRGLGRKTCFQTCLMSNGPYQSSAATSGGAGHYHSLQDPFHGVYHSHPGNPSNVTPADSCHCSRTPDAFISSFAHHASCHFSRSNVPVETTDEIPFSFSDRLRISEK

Consider `CN1CC[C@@H](C(=O)N(C)[C@@H](c2ccc(N3CCCc4c3cnc3cc(Cl)nn43)cc2)C(F)(F)F)CC1=O` (relative stereo) [CPD0073142, (4rel-R)-N-[(1S)-1-(4-{4-chloro-2,3,7,10-tetraazatricyclo[7.4.0.0^2,6]trideca-1(9),3,5,7-tetraen-10-yl}phenyl)-2,2,2-trifluoroethyl]-N,1-dimethyl-2-oxopiperidine-4-carboxamide], for which the figures for the IC50 in assay [1] and in assay [2] were 0.122 µM and 0.068 µM, respectively. For `COc1cncc2c1CCCN2c1ccc(C(N(C)C(=O)C2CCS(=O)(=O)CC2)C(F)(F)F)cc1` (stereo in doubt) [CPD0021939, N-methyl-1,1-dioxo-N-[(1S)-2,2,2-trifluoro-1-[4-(5-methoxy-3,4-dihydro-2H-1,7-naphthyridin-1-yl)phenyl]ethyl]thiane-4-carboxamide] the same measures were 0.894 µM and 0.271 µM. Regarding `CN(C(=O)CN1CCS(=O)(=O)CC1)[C@@H](c1ccc(N2CCCc3c2cnc2cc(Cl)nn32)cc1)C(F)(F)F` [CPD0073572, N-[(1S)-1-(4-{4-chloro-2,3,7,10-tetraazatricyclo[7.4.0.0^2,6]trideca-1(9),3,5,7-tetraen-10-yl}phenyl)-2,2,2-trifluoroethyl]-2-(1,1-dioxo-1λ^6-thiomorpholin-4-yl)-N-methylacetamide], the values for the IC50 in assay [1] and in assay [2] were 0.253 µM and 0.163 µM, respectively. For `CN(C(=O)[C@@H]1CCC(=O)N1)[C@@H](c1ccc(N2CCCc3c2cnc2cc(Cl)nn32)cc1)C(F)(F)F` (relative stereo) [CPD0073566, (2rel-S)-N-[(1S)-1-(4-{4-chloro-2,3,7,10-tetraazatricyclo[7.4.0.0^2,6]trideca-1(9),3,5,7-tetraen-10-yl}phenyl)-2,2,2-trifluoroethyl]-N-methyl-5-oxopyrrolidine-2-carboxamide] the same measures were 0.241 µM and 0.076 µM. For `C[C@@H]1CCN(c2ccc([C@H](N(C)C(=O)[C@@H]3CCC(=O)NC3)C(F)(F)F)cc2)c2cnc3cc(Cl)nn3c21` (relative stereo) [CPD0074561, (3rel-R)-N-[(1S)-1-[4-[(13rel-R)-4-chloro-13-methyl-2,3,7,10-tetrazatricyclo[7.4.0.0^2,6]trideca-1(9),3,5,7-tetraen-10-yl]phenyl]-2,2,2-trifluoro-ethyl]-N-methyl-6-oxo-piperidine-3-carboxamide] the same measures were 0.092 µM and 0.029 µM. For `Cc1nn(C)cc1C(=O)N(C)[C@@H](c1ccc(N2CCCc3c2cnc2cc(Cl)nn32)cc1)C(F)(F)F` [CPD0019347, N-[(1S)-1-(4-{4-chloro-2,3,7,10-tetraazatricyclo[7.4.0.0^2,6]trideca-1(9),3,5,7-tetraen-10-yl}phenyl)-2,2,2-trifluoroethyl]-N,1,3-trimethyl-1H-pyrazole-4-carboxamide], in that order: 0.132 µM and 0.244 µM. For `COc1ccc2ccc(Nc3ccc([C@H](N(C)C(=O)C4CCS(=O)(=O)CC4)C(F)(F)F)cc3)cc2n1` [CPD0019078, N-methyl-1,1-dioxo-N-[(1S)-2,2,2-trifluoro-1-{4-[(2-methoxyquinolin-7-yl)amino]phenyl}ethyl]-16-thiane-4-carboxamide], in assay [1], the IC50 was determined as 0.108 µM.

Turning to `CN(C(=O)C1CCS(=O)(=O)CC1)[C@@H](c1ccc(N2CC[C@@]3(CCOC3)c3c2cnc2cc(Cl)nn32)cc1)C(F)(F)F` [CPD0073762, N-[(1S)-1-[4-[(13rel-R)-4-chlorospiro[2,3,7,10-tetrazatricyclo[7.4.0.0^2,6]trideca-1(9),3,5,7-tetraene-13,3′-tetrahydrofuran]-10-yl]phenyl]-2,2,2-trifluoro-ethyl]-N-methyl-1,1-dioxo-1λ^6-thiane-4-carboxamide], the IC50 in assay [1] is 0.104 µM. Same read-out and setting: the result for `COc1ccc2ncc(Nc3ccc([C@H](N(C)C(=O)C4CCS(=O)(=O)CC4)C(F)(F)F)cc3)c(C3(OC)COC3)c2n1` [CPD0076414, N-methyl-1,1-dioxo-N-[(1S)-2,2,2-trifluoro-1-[4-[6-methoxy-4-(3-methoxyoxetan-3-yl)-1,5-naphthyridin-3-yllamino]phenyl]ethyl]thiane-4-carboxamide] reads 0.267 µM; that for `COc1ccc2ncc(Nc3ccc([C@H](N(C)C(=O)C4CCS(=O)(=O)CC4)C(F)(F)F)cc3)c([C@@H](C)OC)c2n1` (relative stereo) [CPD0019171, N-methyl-1,1-dioxo-N-[(1S)-2,2,2-trifluoro-1-[4-({6-methoxy-4-[(1 rel R)-1-methoxyethyl]-1,5-naphthyridin-3-yl}amino)phenyl]ethyl]-1λ^6-thiane-4-carboxamide], 0.11 µM. Regarding `COc1ccc2ncc(Nc3ccc([C@H](N(C)C(=O)C4CCS(=O)(=O)CC4)C(F)(F)F)cc3)c([C@H]3CCCO3)c2n1` (relative stereo) [CPD0074043, N-methyl-1,1-dioxo-N-[(1S)-2,2,2-trifluoro-1-[4-[6-methoxy-4-[(2 rel-R)-tetrahydrofuran-2-yl]-1,5-naphthyridin-3-yl]amino]phenyl]ethyl]thiane-4-carboxamide], the IC50 in assay [1] was found to be 0.08 µM. Turning to `CN(C(=O)C1CCS(=O)(=O)CC1)[C@@H](c1ccc(N2CCC3(CC3)c3c2cnc2cc(Cl)nn32)nc1)C(F)(F)F` [CPD0021660, N-[(1S)-1-(6-{4′-chloro-2′,3′,7′,10′-tetraazaspiro[cyclopropane-1,13′-tricyclo[7.4.0.0^2,6]tridecane]-1′(9′),3′,5′,7′-tetraen-10′-yl}pyridin-3-yl)-2,2,2-trifluoroethyl]-N-methyl-1,1-dioxo-1λ^6-thiane-4-carboxamide], the IC50 in assay [1] came out at 0.112 µM. In the case of `COC[C@]1(C)CCN(c2ccc([C@H](N(C)C(=O)C3CCS(=O)(=O)CC3)C(F)(F)F)cc2)c2cnc3cc(Cl)nn3c21` [CPD0073140, N-[(1S)-1-[4-[(13rel-R)-4-chloro-13-(methoxymethyl)-13-methyl-2,3,7,10-tetrazatricyclo[7.4.0.0^2,6]trideca-1(9),3,5,7-tetraen-10-yl]phenyl]-2,2,2-trifluoro-ethyl]-N-methyl-1,1-dioxo-1λ^6-thiane-4-carboxamide], the IC50 in assay [1] stood at 0.192 µM.

In the case of `COc1ccc2ncc(Nc3ccc([C@H](N(C)C(=O)C4CCN(C(C)=O)CC4)C(F)(F)F)cc3)c([C@H](C)OC)c2n1` (relative stereo) [CPD0074559, 1-acetyl-N-methyl-N-[(1S)-2,2,2-trifluoro-1-[4-[6-methoxy-4-[(1 rel S)-1-methoxyethyl]-1,5-naphthyridin-3-yl]amino]phenyl]ethyl]piperidine-4-carboxamide], the half-inhibitory concentration (IC50) in assay [1] amounted to 0.027 µM. Turning to `COc1ccc2ncc(Nc3ccc([C@H](N(C)C(=O)[C@@H]4CNC(=O)C4)C(F)(F)F)cc3)c([C@H](C)OC)c2n1` (relative stereo) [CPD0074550, (3 rel S)-N-methyl-5-oxo-N-[(1S)-2,2,2-trifluoro-1-[4-[6-methoxy-4-[(1 rel S)-1-methoxyethyl]-1,5-naphthyridin-3-yl]amino]phenyl]ethyl]pyrrolidine-3-carboxamide], the IC50 in assay [1] is 0.041 µM. Still for that read-out and setting: the result for `CN(C(=O)C1CCS(=O)(=O)CC1)[C@@H](c1ccc(N2CCC3(CC3)c3c2cnc2cc(Cl)nn32)cc1)C(F)(F)F` [CPD0019590, N-[(1S)-1-(4-{4′-chloro-2′,3′,7′, 10′-tetraazaspiro[cyclopropane-1,13′-tricyclo[7.4.0.0^2,6]tridecane]-1′(9′),3′,5′,7′-tetraen-10′-yl}phenyl)-2,2,2-trifluoroethyl]-N-methyl-1,1-dioxo-1λ^6-thiane-4-carboxamide] reads 0.037 µM.

(Values after US20250051327A1, “MALT-1 MODULATORS” (EXSCIENTIA AI LIMITED, priority 2020, published 2025).)
